Results from US20240336573A1, “COMPOUND FOR THE TREATMENT AND PROPHYLAXIS OF INFECTIOUS DISEASES” (Eberhard Karls Universität Tübingen Medizinische Fakultät, priority 2021, published 2024).
Read-outs that look alike come from different tables or passages of the source.

Experiments:
SurA [1] = target: T1, SurA (Escherichia coli, UniProt P0ABZ6); test: Microscale thermophoresis at the ELF (O1); type: binding, E. coli; set-up: key to MST score: 1 = binder; 6 = non-binder; conditions: for MST score: score 1-6
Description: (§1) His-tagged SurA was labeled with the Monolith His-Tag Labeling Kit RED-tris-NTA (Nanotemper) according to the manufacturer's instructions.
Microscale thermophoresis measurements at the ELF were performed as follows. Compounds were tested in 8-point curves at a top starting concentration of 100-0.39 μM. […] 12-point dose responses of reference compound were also set up and tested between runs. Final measurement conditions were 40 mM HEPES pH 7.4, 0.1% Pluronic-F127, 50 nM SurA with Monolith settings—40% excitation and 60% MST power. MST data (capillary scan and shape, initial fluorescence and MST traces) were analyzed and a score was given to each compound.

E. coli ATCC 25922 = test: Sensitizer MIC assay (vancomycin); type: cell-based; conditions: compound concentration of 100 μM
Description: To test for the sensitizer properties of the compounds, the inventors then performed a sensitizer MIC assay. To this end, E. coli BW25113, E. coli JW2496-3, and E. coli ATCC 25922 inocula were prepared as described above. Each well of a 96-well plate was prefilled with a fixed compound concentration of 100 μM and a dilution series of Vancomycin ranging from […]. A sensitizing effect was defined as reduction of the MIC value of Vancomycin of the respective test strain.

HepG2 cells = test: Cytotoxicity assay (LDH release); type: cell-based; conditions: 500 μM compound, 1 h at 37° C., some cells also say precipitate
Description: Cell cytotoxicity of shelf derivatives was evaluated monitoring the LDH release from HepG2 cells using the CytoTox 96@ Non-Radio Cytotoxicity Assay (Promega) according to the manufacturer's instructions. […] After incubation, 25 μl were transferred into a fresh 96-well flat clear bottom plate and mixed with 25 μl CytoTox 96@ Reagent. LDH release reactions were incubated 30 min at RT in the dark and 25 μl Stop Solution were added. LDH release was measured at 490 nm in a multiplate reader.

SurA [2] = target: T1, SurA; test: nanoDSF thermal shift assay (Prometheus); type: binding, E. coli; set-up: key to nanoDSF pH 5 Ti#1 / nanoDSF pH 5 Ti#2 / nanoDSF pH 7.4 Ti#1 / nanoDSF pH 7.4 Ti#2: An increase of the inflection points in the nanoDSF experiments is indicated by (+); a decrease by (−); no changes with (none); ambiguity with a question mark (?); conditions: for nanoDSF pH 7.4 Ti#1 / nanoDSF pH 7.4 Ti#2: 40 mM HEPES pH 7.4, 150 NaCl; for nanoDSF pH 5 Ti#1 / nanoDSF pH 5 Ti#2: 50 mM HAc pH 5; for Thermal stability of SurA as detected by nanoDSF: resynthesized compounds
Description: To this end, 5 μl of a 2 mM compound solution in DMSO were mixed with 95 μl of a 20 μM SurA solution. Technical triplicate measurements were performed on a Prometheus system (NanoTemper).

luciferase = luciferase (Photinus pyralis, UniProt P08659); test: Luciferase interference deselection assay (D1); type: biochemical; conditions: DRC format
Text: Starting with approximately 400,000 compounds, a set of 3991 compounds was left for testing in dose response experiments. Due to acquisition of a lower assay window for part of the data obtained during the screening campaign of ELFSC17_02, the data-set was split into P1 and P2 for analysis in ActivityBase. For P1 the initially set criterion of Z-score ≥4 (˜4%) was used for selection of actives and for P2 this selection criterion was adjusted to effect ≥40% (Z-score ˜15). […] In order to reduce this total number of 4205 compounds to a maximum of 4000 compounds allowed to be ordered in serial dilutions for dose response experiments (i.e. 1% of 400,000), the criterion for P1 was changed to Z-score >4.3 gaining 3344 compounds. […] The confirmed actives of ELF program ELFSC17-02 were tested as serial dilutions in the primary assay and deselection assay to generate dose response curves (DRCs). The serial dilutions consisted of 7 equidistant concentration steps (20 μM to 27.4 nM) and were tested in the primary and in the deselection assay in duplo (n=2) in 1536-well format. […] For the luciferase interference deselection assay in DRC-format, luciferase was left out in the Max effect wells, mimicking a 100% effect situation and resulting in a decreased signal. Compounds showing a signal decrease larger than 5 times the standard deviation (Z-score >5) were identified as luciferase […]. […] The ActivityBase application (IDBS) was used to analyze the data and to calculate quality parameters like Z-prime and Signal to Background ratio (S/B). For all compounds the % effect was calculated for all seven concentrations. ActivityBase was also used to calculate the pEC50 and Hill Slope. […] For compounds where no curve was fitted but reached >50% effect at 20 μM the Fit_Max was locked at 100% effect. For compounds where no curve was fitted but reached 100% effect at 20 μM and descended to <50% at 27 nM the Fit_Min was locked at 0%. […] Based on the results of C2 and D1 a list of 383 compounds was created as the preliminary hits, which were evaluated with MST (01). […]

SurA [3] = target: T1, SurA; test: Microscale thermophoresis (Tuebingen, Monolith NT.115); type: binding, E. coli; conditions: for MST score (Re-evaluation Tuebingen): re-evaluation of QHL compound remainders
Description: as §1
Microscale thermophoresis measurements were performed in 40 mM HEPES pH 7.4, 0.05% Tween-20 at 25° C. with a Monolith NT.115 (NanoTemper) in standard capillaries.

Sequence of luciferase (P08659 whole entry): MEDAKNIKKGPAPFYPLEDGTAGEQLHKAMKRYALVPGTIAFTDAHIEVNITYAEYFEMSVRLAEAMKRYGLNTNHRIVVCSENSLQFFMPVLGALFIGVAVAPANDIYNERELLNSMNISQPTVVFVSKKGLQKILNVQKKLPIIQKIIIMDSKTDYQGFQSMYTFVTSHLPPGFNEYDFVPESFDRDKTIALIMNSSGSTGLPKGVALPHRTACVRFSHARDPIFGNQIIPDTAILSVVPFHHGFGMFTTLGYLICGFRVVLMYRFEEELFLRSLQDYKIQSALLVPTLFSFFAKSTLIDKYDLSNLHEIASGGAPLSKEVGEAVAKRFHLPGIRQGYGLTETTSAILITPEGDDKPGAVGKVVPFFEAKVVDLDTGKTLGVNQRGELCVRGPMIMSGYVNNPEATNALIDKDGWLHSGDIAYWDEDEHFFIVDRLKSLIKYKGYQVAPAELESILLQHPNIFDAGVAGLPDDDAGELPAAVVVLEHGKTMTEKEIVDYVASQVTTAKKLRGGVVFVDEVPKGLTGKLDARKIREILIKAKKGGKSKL
T1 sequence (P0ABZ6 21-428): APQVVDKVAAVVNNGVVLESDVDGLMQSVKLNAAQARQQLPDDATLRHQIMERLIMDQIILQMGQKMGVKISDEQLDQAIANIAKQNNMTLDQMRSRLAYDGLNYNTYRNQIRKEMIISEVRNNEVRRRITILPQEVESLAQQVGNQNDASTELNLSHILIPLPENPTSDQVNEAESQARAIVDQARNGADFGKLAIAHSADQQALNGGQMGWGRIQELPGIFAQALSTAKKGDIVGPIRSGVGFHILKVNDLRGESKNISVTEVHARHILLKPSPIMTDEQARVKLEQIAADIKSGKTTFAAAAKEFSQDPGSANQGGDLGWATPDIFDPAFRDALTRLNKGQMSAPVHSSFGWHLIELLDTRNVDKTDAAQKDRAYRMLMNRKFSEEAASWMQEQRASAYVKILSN

Row | SMILES | IC50 (SurA [1]; 8-point curves 100-0.39 μM, 50 nM SurA, read-out: MST pIC50 (converted)) [µM] | MST score (SurA [1]) | MIC (reduction of vancomycin MIC) (E. coli ATCC 25922) | CytoTox (HepG2 cells) | nanoDSF pH 7.4 Ti#1 (SurA [2]) | nanoDSF pH 7.4 Ti#2 (SurA [2]) | nanoDSF pH 5 Ti#1 (SurA [2]) | nanoDSF pH 5 Ti#2 (SurA [2]) | Thermal stability of SurA as detected by nanoDSF (SurA [2]) | Deselection (D1) pIC50 (luciferase; listed as QHL-10) | IC50 (luciferase; read-out: Deselection (D1) pIC50 (converted)) [µM] | MST (Kd in mM) (SurA [3]) | MST score (Re-evaluation Tuebingen) (SurA [3]) | MST (KD) (SurA [3]; resynthesized compounds) | Deselection (D1) pIC50 (luciferase) | Kd (SurA [3]; read-out: MST (Kd in mM)) [mM] | Kd (SurA [3]; resynthesized compounds, read-out: MST (KD)) [mM]
1 | NC(=O)c1nc(Cc2ccc(OCC(=O)O)cc2)[nH]c1NC(=O)c1ccc(-c2ccccc2)cc1 [Compound 2a, 2-(4-((5-([1,1′-biphenyl]-4-carboxamido)-4-carbamoyl-1H-imidazol-2-yl)methyl)phenoxy)acetic acid] | 39.8 | 1 | yes (reduction of the MIC for vancomycin of the E. coli ATCC 25922 strain below 256 mg/l at a compound concentration of 100 μM (yes/no)) | 50.23% | none | − | + | − | affected the thermal stability of SurA | 5.16 | 6.92 | binding | 2 | binding |  |  | 
2 | CN(C)c1ccc(-c2nc3cc(NC(=O)Cn4cc5ccccc5n4)ccc3[nH]2)cc1 [QHL-24] |  | 1 | yes (reduction of the MIC for vancomycin of the E. coli ATCC 25922 strain below 256 mg/l at a compound concentration of 100 μM (yes/no)) | precipitate (7.87%) | none | − | none | + | affected the thermal stability of SurA |  |  |  | inconclusive | binding | 4.42 | 0.02 to 0.03 | 0.02 to 0.03
